{"source": "patent US20110136897A1", "about": "“TOLL-LIKE RECEPTOR 9 AGONISTS FOR THE TREATMENT OF ANXIETY-RELATED DISORDERS AND INFLAMMATORY DISORDERS” (YISSUM RESEARCH DEVELOPMENT COMPANY OF THE HEBREW …, priority 2008, published 2011)", "key": {"FVB/N mice [1]": {"system": "FVB/N mice", "assay": "Predator (cat) odor stress paradigm, elevated plus maze (EPM) and acoustic startle response (ASR) one week post-exposure", "type": "in vivo, mouse", "protocol": "Animals: FVB/N or adult TLR9 −/− mice and strain-matched wild type C57/B6J mice were housed four per cage, with constant temperature (21±1° C.), a 12 hour light/dark cycle, free access to food and water and habituation to the housing conditions by daily handling. Experiments were performed 1 week after arrival in the animal facility.\nBehavioral paradigms: Mice were placed for 10 minutes on well-soiled cat litter (in use by the cat for 2 days, sifted for stools). One week after exposure, animals were tested according to Cohen et al. (2005) Biol Psychiatry 58, 640 in the elevated plus maze (EPM) and the acoustic startle response (ASR) paradigms. The EPM is a plus-shaped platform with two opposing open arms and two opposing closed arms (surrounded by 14-cm high opaque walls on three sides). Mice were placed on the central platform and were allowed to explore the maze for 5 min. […]\nStartle response was measured using two ventilated startle chambers (SR-LAB System, San Diego Instruments, San Diego, Calif.). Each Plexiglas cylinder rests on a platform inside a sound-attenuated, ventilated chamber. Startle sessions started with a 5-minute acclimatization period to a background of 68 dB white noise, followed by 30 acoustic startle stimuli (110 dB white noise of 40 ms duration with 30 s or 45 s inter-trial interval). Startle amplitude was averaged over all 30 trials, and percent habituation was calculated as the percent difference between the response to the first block of stimuli and to the last one.\nAnimals were randomly divided into 5 groups. The following daily treatments initiated immediately before stressor exposure and for a total of four consecutive days: saline, 50 μg/kg ODN1826, 50 μg/kg mEN101, 50 μg/kg μg mEN101 and 500 μg/kg μg ODN2088. Oligonucleotides were delivered in 300 μl 0.9% NaCl solution (Teva, Israel). A control group was exposed to fresh, unused litter. Animals were sacrificed and brains dissected on day 1 2 h after the stressor, on day 4 2 h after the last injection, or on day 7 2 h after the behavioral tests, as noted.\nTo challenge the hypothesis that TLR9 activation modulates psychological stress reactions, mice were exposed to the predator odor stress paradigm (Cohen, H., Zohar, J., Matar, M. A., Kaplan, Z. & Geva, A. B. (2005) Biol Psychiatry 58, 640-50) and treated them with TLR9 activating or blocking oligonucleotides and with a known stress-suppressing oligonucleotide, mEN101. One week post-exposure, treated mice were tested for avoidance behavior and hyper-arousal in the elevated plus maze (EPM) and acoustic startle response (ASR) tests, respectively (FIG. 1B). […] They also presented greater startle amplitude (F5,103=10.75, p<0.0001; p<0.0001) and decreased startle habituation ([…]; p<0.0001) than control mice (FIG. 1C). The traumatic experience conferred varied impacts in the exposed mice, ranging from drastically maladaptive behavior to generally unmodified response patterns."}, "RAW264.7 cells [2]": {"system": "RAW264.7 cells", "assay": "Nitric oxide (NO) production, Griess reaction", "type": "cell-based, mouse", "conditions": "24 hours", "protocol": "(§1) The mouse macrophage cell line RAW 264.7 (ATCC, Bethesda, Md.) was cultured in Dulbecco's modified Eagle's medium (DMEM) (Biological Industries) supplemented with 10% heat-inactivated fetal bovine serum (Biological Industries, Israel), 100 μg/ml streptomycin, 100 U/ml penicillin (Sigma) and 2 mM 1-glutamine (Biological Industries) at 37° C. in a humidified atmosphere with 5% CO2.\nDetermination of nitric oxide (NO) production: Nitrite concentration in the medium of cultured cells was measured as an indicator of NO production according to the Griess reaction. 1×10^5 mouse RAW264.7 cells were grown in 0.5 ml medium in 48-wells plate until 80% confluence was obtained. […] (1% sulfanilamide, 0.1% naphthylethylenediamine dihydrochloride, 5% H3PO4). Absorbance was read at 540 nm after 10 min using SPECTRAFluor Plus spectrophotometer (TECAN, UK).\nTo further characterize the TLR9 activating features of mEN101, mEN101 was applied to RAW264.7 cells (n=4 repeats) for 24 hours and the subsequent production of inflammatory markers was quantified. […] Addition of chloroquine (CQ), a weak base that perturbs endosomal pH and thus disturbs endosomal maturation, as well as the specific TLR9 inhibiting oligonucleotides ODN2088 and ODN TTAGGG (17), all blocked the 10 μM mEN101-driven increases in NO (p<0.015) (FIG. 2A). Thus, both gain and loss of function tests validated the nature of mEN101 as an endosomally active TLR9 activator, albeit a weak one."}, "RAW264.7 cells [3]": {"system": "RAW264.7 cells", "assay": "HSP90β mRNA RT-PCR in RAW264.7 cells", "type": "cell-based, mouse", "conditions": "24 hour incubation", "protocol": "as §1, with “Cell cultures: The” for “The”, “MD)” for “Bethesda, Md.)”, “Industries, Israel)” for “Industries)”, “streptomycin (Sigma),” for “streptomycin,”\nReal-time PCR (RT-PCR): RAW264.7 cells and spleen were used for RT-PCR. 1×10^6 RAW264.7 cells were grown in 2 ml medium in 6 wells plates until 80% confluence was obtained. Total RNA was extracted using the RNeasy kit (Qiagen, CA, USA). Spleen and brain tissues' RNA was extracted using the RNeasy Tissue Mini Kit (Qiagen, Germany). In all cases, total RNA was reverse-transcribed (200 ng) using Impromp-II reverse transcriptase (Promega, WI, USA) according to manufacturer's instructions. RT-PCR was performed using Power SYBR®Green PCR Master Mix (Applied Biosystems, UK) in a 7900 HT Sequence Detection System (Applied Biosystems, CA). Quantification was assessed at the logarithmic phase of the PCR reaction. The PCR annealing temperature was 60° C. for all primer pairs."}, "FVB/N mice [4]": {"system": "FVB/N mice", "assay": "Predator (cat) odor stress paradigm, elevated plus maze (EPM) and acoustic startle response (ASR) one week post-exposure", "type": "in vivo, mouse", "remark": "listed apart in the source"}}, "note": "“Also recorded” adds a separate entry of the source.", "data": [{"substance": "5′-TCCATGACGTTCCTGACGTT-3′ [ODN1826, reference compound]", "values": [{"measurement": "anxiety index (AI)", "setting": "FVB/N mice [1]; 50 μg/kg (high dose for ODN1826), compared to saline injected stressed mice", "value": "significantly increased AI"}, {"measurement": "stress-induced anxiety scores (EPM score, startle response, habituation to startle)", "setting": "FVB/N mice [1]; 50 μg/kg i.p. daily for 4 consecutive days, tested day 7, compared to saline-treated stressed mice", "value": "increased stress-induced anxiety scores; also recorded: slightly anxiogenic behavior"}, {"measurement": "concentration reaching saturation levels of NO production", "setting": "RAW264.7 cells [2]", "value": 100, "unit": "nM"}, {"measurement": "lowest concentration inducing massive NO production", "setting": "RAW264.7 cells [2]", "value": 10, "unit": "nM"}, {"measurement": "HSP90β mRNA levels", "setting": "RAW264.7 cells [3]", "value": "significantly increased HSP90β mRNA levels"}, {"measurement": "stress-induced anxiety scores (EPM score, startle response, habituation to startle)", "setting": "FVB/N mice [4]; 0.5 μg/kg i.p. daily for 4 days, tested day 7, compared to stressed mice", "value": "diminished stress-induced anxiety scores; also recorded: lower EPM scores"}, {"measurement": "anxiety index (AI)", "setting": "FVB/N mice [4]; low dose (0.5 μg/kg), compared to saline injected stressed mice", "value": "decreased it"}]}]}
